From ChEMBL document CHEMBL2331101, “Aldosterone synthase inhibitors” (ACS Med Chem Lett, 2013)

Tests used:
Format in all cases: cell-based
CYP11B1 = target: T1, CYP11B1 (Homo sapiens, UniProt P15538); assay: (§1) Inhibition of human Cyp11B1 transfected in chinese hamster V79MZ cells using deoxycorticosterone as substrate incubated for 60 mins prior to substrate addition measured after 25 mins by HPLC analysis; details: human, Chinese hamster V79MZ cells transfected with human CYP11B1, probe deoxycorticosterone
T1 sequence (P15538 whole entry): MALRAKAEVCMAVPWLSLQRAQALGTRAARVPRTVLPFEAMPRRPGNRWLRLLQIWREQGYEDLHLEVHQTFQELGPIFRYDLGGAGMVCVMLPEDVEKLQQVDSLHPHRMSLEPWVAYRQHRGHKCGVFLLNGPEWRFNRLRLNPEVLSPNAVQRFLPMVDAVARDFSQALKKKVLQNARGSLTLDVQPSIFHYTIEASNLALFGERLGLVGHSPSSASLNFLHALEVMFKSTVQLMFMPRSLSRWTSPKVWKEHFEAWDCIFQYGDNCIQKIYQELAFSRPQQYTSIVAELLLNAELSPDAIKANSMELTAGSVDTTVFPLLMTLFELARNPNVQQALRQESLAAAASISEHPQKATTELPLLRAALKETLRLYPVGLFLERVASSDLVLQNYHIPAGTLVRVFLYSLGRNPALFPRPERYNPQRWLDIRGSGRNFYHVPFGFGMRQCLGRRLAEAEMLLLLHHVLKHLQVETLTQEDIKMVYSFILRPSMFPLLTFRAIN

[1] = target: T2, Cytochrome P450 11B2, mitochondrial (Homo sapiens, UniProt P19099); assay: Inhibition of human Cyp11B2 transfected in chinese hamster V79MZ cells using deoxycorticosterone as substrate incubated for 60 mins prior to substrate addition measured after 50 mins by HPLC analysis
T2 sequence (P19099 whole entry): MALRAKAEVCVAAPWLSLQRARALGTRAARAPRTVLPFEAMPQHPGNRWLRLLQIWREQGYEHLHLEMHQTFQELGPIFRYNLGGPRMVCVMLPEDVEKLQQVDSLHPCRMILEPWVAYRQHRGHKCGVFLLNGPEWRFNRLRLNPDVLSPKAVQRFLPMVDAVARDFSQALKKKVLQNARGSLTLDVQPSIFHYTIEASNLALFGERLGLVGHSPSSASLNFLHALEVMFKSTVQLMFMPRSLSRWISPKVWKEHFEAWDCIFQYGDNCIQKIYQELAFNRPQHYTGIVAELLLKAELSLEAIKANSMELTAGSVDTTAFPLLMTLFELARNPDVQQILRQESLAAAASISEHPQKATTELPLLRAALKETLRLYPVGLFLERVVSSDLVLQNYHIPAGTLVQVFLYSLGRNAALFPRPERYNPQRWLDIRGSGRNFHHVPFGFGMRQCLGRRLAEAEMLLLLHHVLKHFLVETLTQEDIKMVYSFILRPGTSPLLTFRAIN

[2] = target: T3, Cytochrome P450 11B1, mitochondrial (Homo sapiens, UniProt P15538); assay: as §1
T3 sequence (P15538 whole entry): T1 sequence (P15538 whole entry)

| SMILES | IC50 at 25 min (CYP11B1) | IC50 [1] | IC50 [2] |
| --- | --- | --- | --- |
| COc1c(C)cncc1-c1cc2c(cc1F)-n1c(C)nnc1CC2 | > 10000 nM |  |  |
| COC(C)(C)c1cncc(-c2ccc3c(c2)CCc2nnc(C)n2-3)c1 |  | 5 nM | 108 nM |
| Cc1nnc2n1-c1ccc(-c3cncc4ccccc34)cc1CC2 |  | 5 nM | 407 nM |

The remaining lines, values ahead:

| IC50 at 25 min (CYP11B1) | IC50 [1] | IC50 [2] | SMILES |
| --- | --- | --- | --- |
| > 10000 nM |  |  | Cc1nnc2n1-c1cc(Cl)c(-c3cncc4ccccc34)cc1CC2 |
| > 30000 nM |  |  | Cc1nnc2n1-c1c(Cl)cc(-c3cnccc3C(F)(F)F)cc1CC2 |
